The values that follow come from PubChem BioAssay (NCI).

Each structure is given as a SMILES string.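 Protocol summary: plate cells (96-well), add compound at 5 concentrations, incubate 48 h, interpolate endpoints linearly. At the TGI there is no net growth.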

Among the test systems are OVCAR-8 ovarian; MDA-MB-231 breast; MDA-MB-435; MCF7 breast; HT29 colon; U251 CNS; HCC-2998 colon; M14 melanoma; SK-MEL-5 melanoma; UACC-257 melanoma; SNB-19 CNS; SK-MEL-2 melanoma; CAKI-1 renal; IGROV1 ovarian.
What all share (test): growth of human tumour cells (NCI), 48 h

With `CN1CCC(C(O)(c2ccccc2)c2ccc(Br)cc2)CC1` (centres undefined), the TGI in the test with OVCAR-8 ovarian is > 100 µM; in the test with MDA-MB-231 breast, 48.8 µM; with MDA-MB-435, 30.7 µM; with MCF7 breast, 64.2 µM; in the test on HT29 colon, 51.9 µM; in the test with U251 CNS, 43.1 µM. In addition, the TGI in the test on HCC-2998 colon is 25.1 µM; in the test on M14 melanoma it was 28.7 µM; in the test with SK-MEL-5 melanoma, 27.9 µM; in the test with UACC-257 melanoma, 29.7 µM; in the test on SNB-19 CNS, > 100 µM; in the test on SK-MEL-2 melanoma, 30.3 µM. Moreover, the TGI in the test on CAKI-1 renal and in the test with IGROV1 ovarian was > 100 µM in each case.

For the compound `CC(Oc1ccc(Cl)cc1Cl)C(=O)NN1C(=O)CC(=O)N(c2ccccc2)C1=S` (centres undefined), the TGI with OVCAR-8 ovarian, in the test on MDA-MB-231 breast, in the test on MDA-MB-435, in the test on MCF7 breast, in the test with HT29 colon and in the test on U251 CNS was > 100 µM in each case. For the same compound, the TGI in the test on HCC-2998 colon, with M14 melanoma, with SK-MEL-5 melanoma, in the test on UACC-257 melanoma, in the test with SNB-19 CNS and with SK-MEL-2 melanoma was > 100 µM in each case. The TGI with CAKI-1 renal and in the test with IGROV1 ovarian was > 100 µM in each case.

`CN(CCc1ccccn1)c1ccc2c(c1)C(=O)c1ccccc1-2`: the TGI with OVCAR-8 ovarian, in the test on MDA-MB-231 breast, in the test on MDA-MB-435, with MCF7 breast, with HT29 colon and in the test with U251 CNS was > 100 µM throughout. For the same compound, the TGI with HCC-2998 colon is > 100 µM; in the test on M14 melanoma it was > 100 µM; with SK-MEL-5 melanoma, 98.3 µM; with UACC-257 melanoma, > 100 µM; with SNB-19 CNS it was > 100 µM; with SK-MEL-2 melanoma, > 100 µM. The TGI in the test with CAKI-1 renal and in the test on IGROV1 ovarian was > 100 µM throughout.

Regarding `COC(=O)/C=C\C(C#N)(C#N)N=Cc1ccc(OC)cc1`, the TGI is 9.46 µM in the test with OVCAR-8 ovarian; 37.7 µM in the test on MDA-MB-231 breast; 5.44 µM in the test with MDA-MB-435; 7.44 µM in the test with MCF7 breast; 22.2 µM in the test with HT29 colon; 35.2 µM with U251 CNS. Also, the TGI is 41.1 µM in the test with HCC-2998 colon; 8.77 µM in the test with M14 melanoma; 32.6 µM with SK-MEL-5 melanoma; 11.6 µM in the test on UACC-257 melanoma; > 62.7 µM in the test on SNB-19 CNS; 35.5 µM in the test on SK-MEL-2 melanoma. Moreover, the TGI is 4.48 µM with CAKI-1 renal and 28.7 µM with IGROV1 ovarian.

For `O=C(Cc1nc2ccccc2[nH]c1=O)c1c[nH]c2ccccc12`, the TGI with OVCAR-8 ovarian was 45.9 µM; with MDA-MB-231 breast it was 54.2 µM; in the test on MDA-MB-435, > 100 µM; in the test on MCF7 breast, > 100 µM; in the test with HT29 colon it was 27.3 µM; in the test on U251 CNS, 33 µM. Further, the TGI is 41.6 µM in the test with HCC-2998 colon; > 100 µM in the test with M14 melanoma; 26.9 µM in the test with SK-MEL-5 melanoma; > 100 µM in the test with UACC-257 melanoma; > 100 µM in the test with SNB-19 CNS; 28.9 µM in the test on SK-MEL-2 melanoma. Moreover, the TGI is 63.4 µM in the test with CAKI-1 renal and > 100 µM in the test with IGROV1 ovarian.

`COC(=O)c1c(O)ccc2c1c1c(n2Cc2cc(OC)cc(OC)c2)C(=O)c2ccccc2C1=O`: the TGI came to 90.3 µM in the test with OVCAR-8 ovarian; 35.7 µM in the test with MDA-MB-231 breast; 12.9 µM in the test on MDA-MB-435; 45.3 µM with MCF7 breast; 5.42 µM in the test on HT29 colon; 28.2 µM in the test on U251 CNS. The TGI with HCC-2998 colon is 5.73 µM; with M14 melanoma, 26.2 µM; with SK-MEL-5 melanoma, 26.7 µM; in the test with UACC-257 melanoma it was > 100 µM; with SNB-19 CNS it was > 100 µM; in the test on SK-MEL-2 melanoma, 27.2 µM. The TGI in the test with CAKI-1 renal worked out at 56.7 µM; in the test with IGROV1 ovarian, 22 µM.

`COc1ccc2nc3cc(Cl)ccc3c(NCCCN3CCN(CCCNc4ccc5nnn6c7ccccc7c(=O)c4c56)CC3)c2c1`: the TGI is > 25 µM with OVCAR-8 ovarian; > 18.2 µM in the test on MDA-MB-231 breast; > 25 µM in the test on MDA-MB-435; 7.11 µM in the test with MCF7 breast; > 25 µM in the test on HT29 colon; > 25 µM with U251 CNS. For the same compound, the TGI in the test with HCC-2998 colon was > 9.86 µM; in the test on M14 melanoma, > 25 µM; in the test with SK-MEL-5 melanoma it was > 25 µM; in the test with UACC-257 melanoma, > 25 µM; with SNB-19 CNS, > 25 µM; in the test on SK-MEL-2 melanoma, > 25 µM. Besides, the TGI was > 15.8 µM with CAKI-1 renal and > 25 µM in the test with IGROV1 ovarian.

With `CC(Oc1ccccc1Cl)C(=O)NN1C(=O)CC(=O)N(c2ccc(Cl)cc2)C1=S` (centres undefined), the TGI with OVCAR-8 ovarian, with MDA-MB-231 breast, in the test with MDA-MB-435, with MCF7 breast, in the test on HT29 colon and in the test on U251 CNS was > 100 µM throughout. Further, the TGI in the test on HCC-2998 colon was > 100 µM; in the test on M14 melanoma, > 100 µM; in the test on SK-MEL-5 melanoma it was > 100 µM; in the test with UACC-257 melanoma, > 100 µM; in the test on SNB-19 CNS, > 100 µM; with SK-MEL-2 melanoma, 98.2 µM. Besides, the TGI with CAKI-1 renal and in the test with IGROV1 ovarian was > 100 µM throughout.

Consider `O=C(O)c1cc2ccccc2c(N=Nc2ccc(S(=O)(=O)Nc3ncccn3)cc2)c1O`, for which the TGI with OVCAR-8 ovarian, in the test on MDA-MB-231 breast, in the test with MDA-MB-435, in the test with MCF7 breast, with HT29 colon and with U251 CNS was > 100 µM throughout. Moreover, the TGI in the test on HCC-2998 colon, in the test on M14 melanoma, with SK-MEL-5 melanoma, in the test with UACC-257 melanoma, in the test with SNB-19 CNS and in the test on SK-MEL-2 melanoma was > 100 µM in each case. Moreover, the TGI with CAKI-1 renal and with IGROV1 ovarian was > 100 µM throughout.

For `COc1ccccc1-c1c(C#N)c(N)[nH]c(=S)c1C#N`, the TGI in the test with OVCAR-8 ovarian, in the test on MDA-MB-231 breast, in the test with MDA-MB-435, in the test on MCF7 breast, in the test with HT29 colon and in the test on U251 CNS was > 100 µM in each case. The TGI with HCC-2998 colon, in the test on M14 melanoma, in the test on SK-MEL-5 melanoma, with UACC-257 melanoma, with SNB-19 CNS and with SK-MEL-2 melanoma was > 100 µM each time. The TGI with CAKI-1 renal and with IGROV1 ovarian was > 100 µM each time.

Regarding `CC1=NN(c2nc(N)nc(/C(C#N)=C\c3ccc(-c4ccc([N+](=O)[O-])cc4)o3)n2)C(C)(C)C1`, the TGI in the test on OVCAR-8 ovarian, in the test with MDA-MB-231 breast, in the test on MDA-MB-435, with MCF7 breast, in the test with HT29 colon and in the test on U251 CNS was > 100 µM throughout. Besides, the TGI with HCC-2998 colon, in the test on M14 melanoma, in the test with SK-MEL-5 melanoma, in the test on UACC-257 melanoma, in the test on SNB-19 CNS and in the test on SK-MEL-2 melanoma was > 100 µM each time. Also, the TGI in the test with CAKI-1 renal and in the test with IGROV1 ovarian was > 100 µM in each case.
